Measurements published in patent US20160009693A1, “HERBICIDAL COMPOUNDS” (SYNGENTA LIMITED, priority 2013, published 2016).

What follows are molecules tested on Amaranthus retoflexus (AMARE) (assay: Herbicidal glasshouse test, pre-emergence, AMARE). Details: applied at 250 g/ha, evaluated after 13 days.
Format: in vivo
In short: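 Amaranthus retoflexus seeds were sown in pots of standard soil and kept one day in a glasshouse at 24/16° C. (day/night), 14 hours light and 65% humidity. They were then sprayed pre-emergence with the active ingredient in acetone/water (50:50) containing 0.5% Tween 20. Plants grew under the same conditions, watered twice daily, and percentage damage was scored after 13 days.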
For `Cn1nnnc1NC(=O)c1nn(C)c(=O)n(-c2ccc(Cl)c(C#N)c2)c1=O` [Compound 1.047], the “PRE Application AMARE, percentage damage (five point scale)” value was 5 (5=80-100%).

Same assay, conditions: applied at 1000 g/h, evaluated after 13 days
With `Cc1cc(C)cc(-n2c(=O)c(C(=O)Nc3nnnn3C)nn(C)c2=O)c1` [Compound 1.038] the “PRE Application AMARE, percentage damage (five point scale)” value was 5 (5=80-100%).

These molecules were tested on Ipomoea hederacea (IPOHE) (assay: Herbicidal glasshouse test, post-emergence, IPOHE). Details: applied at 250 g/ha, evaluated after 13 days.
Format: in vivo
For `Cn1nnnc1NC(=O)c1nn(C)c(=O)n(-c2ccc(Cl)c(C#N)c2)c1=O` [Compound 1.047], the “POST Application IPOHE, percentage damage (five point scale)” value was 4 (4=60-79%).

Same assay, conditions: applied at 1000 g/h, evaluated after 13 days
`Cc1cc(C)cc(-n2c(=O)c(C(=O)Nc3nnnn3C)nn(C)c2=O)c1` [Compound 1.038] was tested, and the “POST Application IPOHE, percentage damage (five point scale)” value was 5 (5=80-100%).

The molecules below were run on Alopecurus myosuroides (ALOMY) (assay: Herbicidal glasshouse test, pre-emergence, ALOMY). Details: applied at 250 g/ha, evaluated after 13 days.
Format: in vivo
`Cn1nnnc1NC(=O)c1nn(C)c(=O)n(-c2ccc(Cl)c(C#N)c2)c1=O` [Compound 1.047] was tested, and the “PRE Application ALOMY, percentage damage (five point scale)” value was 1 (1=0-19%).

Same assay, conditions: applied at 1000 g/h, evaluated after 13 days
With `Cc1cc(C)cc(-n2c(=O)c(C(=O)Nc3nnnn3C)nn(C)c2=O)c1` [Compound 1.038] the “PRE Application ALOMY, percentage damage (five point scale)” value was 5 (5=80-100%).

The molecules below were run on Setaria faberi (SETFA) (assay: Herbicidal glasshouse test, pre-emergence, SETFA). Details: applied at 250 g/ha, evaluated after 13 days.
Format: in vivo
`Cn1nnnc1NC(=O)c1nn(C)c(=O)n(-c2ccc(Cl)c(C#N)c2)c1=O` [Compound 1.047] was tested, and the “PRE Application SETFA, percentage damage (five point scale)” value was 1 (1=0-19%).

Same assay, conditions: applied at 1000 g/h, evaluated after 13 days
In the case of `Cc1cc(C)cc(-n2c(=O)c(C(=O)Nc3nnnn3C)nn(C)c2=O)c1` [Compound 1.038], the “PRE Application SETFA, percentage damage (five point scale)” value was 5 (5=80-100%).

The molecules below were run on Solanum nigrum (SOLNI) (assay: Herbicidal glasshouse test, post-emergence, SOLNI). Details: applied at 250 g/ha, evaluated after 13 days.
Format: in vivo
`Cn1nnnc1NC(=O)c1nn(C)c(=O)n(-c2ccc(Cl)c(C#N)c2)c1=O` [Compound 1.047] was tested, and the “POST Application SOLNI, percentage damage (five point scale)” value was 5 (5=80-100%).

Same assay, conditions: applied at 1000 g/h, evaluated after 13 days
For `Cc1cc(C)cc(-n2c(=O)c(C(=O)Nc3nnnn3C)nn(C)c2=O)c1` [Compound 1.038], the “POST Application SOLNI, percentage damage (five point scale)” value was 5 (5=80-100%).

The molecules below were run on Alopecurus myosuroides (ALOMY) (assay: Herbicidal glasshouse test, post-emergence, ALOMY). Details: applied at 250 g/ha, evaluated after 13 days.
Format: in vivo
`Cn1nnnc1NC(=O)c1nn(C)c(=O)n(-c2ccc(Cl)c(C#N)c2)c1=O` [Compound 1.047] was tested, and the “POST Application ALOMY, percentage damage (five point scale)” value was 3 (3=40-59%).

Same assay, conditions: applied at 1000 g/h, evaluated after 13 days
With `Cc1cc(C)cc(-n2c(=O)c(C(=O)Nc3nnnn3C)nn(C)c2=O)c1` [Compound 1.038] the “POST Application ALOMY, percentage damage (five point scale)” value was 5 (5=80-100%).

What follows are molecules tested on Solanum nigrum (SOLNI) (assay: Herbicidal glasshouse test, pre-emergence, SOLNI). Details: applied at 250 g/ha, evaluated after 13 days.
Format: in vivo
In short: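 Seeds of Solanum nigrum were sown in pots of standard soil and kept one day in a glasshouse at 24/16° C. day/night, 14 hours light and 65% humidity. For the pre-emergence treatment they were then sprayed with an aqueous solution of the active ingredient formulated in acetone/water (50:50) containing 0.5% Tween 20. Plant damage was rated after 13 days.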
`Cn1nnnc1NC(=O)c1nn(C)c(=O)n(-c2ccc(Cl)c(C#N)c2)c1=O` [Compound 1.047] was tested, and the “PRE Application SOLNI, percentage damage (five point scale)” value was 5 (5=80-100%).

Same assay, conditions: applied at 1000 g/h, evaluated after 13 days
With `Cc1cc(C)cc(-n2c(=O)c(C(=O)Nc3nnnn3C)nn(C)c2=O)c1` [Compound 1.038] the “PRE Application SOLNI, percentage damage (five point scale)” value was 5 (5=80-100%).

These molecules were tested on Echinochloa crus-galli (ECHCG) (assay: Herbicidal glasshouse test, post-emergence, ECHCG). Details: applied at 250 g/ha, evaluated after 13 days.
Format: in vivo
In short: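 Echinochloa crus-galli (ECHCG) seeds were sown in standard soil in pots and grown for 8 days in a glasshouse at 24/16° C. day/night, 14 hours light and 65% humidity. The young plants were then sprayed post-emergence with the active ingredient in acetone / water (50:50) containing 0.5% Tween 20. Damage was scored after 13 days.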
For `Cn1nnnc1NC(=O)c1nn(C)c(=O)n(-c2ccc(Cl)c(C#N)c2)c1=O` [Compound 1.047], the “POST Application ECHCG, percentage damage (five point scale)” value was 3 (3=40-59%).

Same assay, conditions: applied at 1000 g/h, evaluated after 13 days
With `Cc1cc(C)cc(-n2c(=O)c(C(=O)Nc3nnnn3C)nn(C)c2=O)c1` [Compound 1.038] the “POST Application ECHCG, percentage damage (five point scale)” value was 5 (5=80-100%).

What follows are molecules tested on Echinochloa crus-galli (ECHCG) (assay: Herbicidal glasshouse test, pre-emergence, ECHCG). Details: applied at 250 g/ha, evaluated after 13 days.
Format: in vivo
In short: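 Echinochloa crus-galli seeds were sown in standard soil in pots and grown for one day in a glasshouse at 24/16° C. day/night, 14 hours light and 65% humidity. Pre-emergence spraying used an aqueous solution of the active ingredient in acetone/water (50:50) with 0.5% Tween 20. Damage was scored after 13 days on a five point scale.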
`Cn1nnnc1NC(=O)c1nn(C)c(=O)n(-c2ccc(Cl)c(C#N)c2)c1=O` [Compound 1.047] was tested, and the “PRE Application ECHCG, percentage damage (five point scale)” value was 3 (3=40-59%).

Same assay, conditions: applied at 1000 g/h, evaluated after 13 days
With `Cc1cc(C)cc(-n2c(=O)c(C(=O)Nc3nnnn3C)nn(C)c2=O)c1` [Compound 1.038] the “PRE Application ECHCG, percentage damage (five point scale)” value was 5 (5=80-100%).

What follows are molecules tested on Amaranthus retoflexus (AMARE) (assay: Herbicidal glasshouse test, post-emergence, AMARE). Details: applied at 250 g/ha, evaluated after 13 days.
Format: in vivo
In short: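 Amaranthus retoflexus (AMARE) seeds were sown in pots of standard soil and grown in a glasshouse at 24/16° C. day/night, 14 hours light and 65% humidity for 8 days. The plants were then sprayed post-emergence with an aqueous solution of the active ingredient in acetone/water (50:50) with 0.5% Tween 20. Damage was scored after 13 days.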
`Cn1nnnc1NC(=O)c1nn(C)c(=O)n(-c2ccc(Cl)c(C#N)c2)c1=O` [Compound 1.047] was tested, and the “POST Application AMARE, percentage damage (five point scale)” value was 5 (5=80-100%).

Same assay, conditions: applied at 1000 g/h, evaluated after 13 days
With `Cc1cc(C)cc(-n2c(=O)c(C(=O)Nc3nnnn3C)nn(C)c2=O)c1` [Compound 1.038] the “POST Application AMARE, percentage damage (five point scale)” value was 5 (5=80-100%).

These molecules were tested on Setaria faberi (SETFA) (assay: Herbicidal glasshouse test, post-emergence, SETFA). Details: applied at 250 g/ha, evaluated after 13 days.
Format: in vivo
In short: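 Setaria faberi seeds were sown in standard soil in pots and grown for 8 days in a glasshouse at 24/16° C. day/night, 14 hours light and 65% humidity. The seedlings were then sprayed post-emergence with the active ingredient in acetone/water (50:50) containing 0.5% Tween 20. Afterwards they were kept under the same conditions, watered twice daily, and scored for percentage damage on a five point scale.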
For `Cn1nnnc1NC(=O)c1nn(C)c(=O)n(-c2ccc(Cl)c(C#N)c2)c1=O` [Compound 1.047], the “POST Application SETFA, percentage damage (five point scale)” value was 1 (1=0-19%).

Same assay, conditions: applied at 1000 g/h, evaluated after 13 days
`Cc1cc(C)cc(-n2c(=O)c(C(=O)Nc3nnnn3C)nn(C)c2=O)c1` [Compound 1.038] was tested, and the “POST Application SETFA, percentage damage (five point scale)” value was 5 (5=80-100%).

These molecules were tested on Ipomoea hederacea (IPOHE) (assay: Herbicidal glasshouse test, pre-emergence, IPOHE). Details: applied at 250 g/ha, evaluated after 13 days.
Format: in vivo
With `Cn1nnnc1NC(=O)c1nn(C)c(=O)n(-c2ccc(Cl)c(C#N)c2)c1=O` [Compound 1.047] the “PRE Application IPOHE, percentage damage (five point scale)” value was 5 (5=80-100%).

Same assay, conditions: applied at 1000 g/h, evaluated after 13 days
In the case of `Cc1cc(C)cc(-n2c(=O)c(C(=O)Nc3nnnn3C)nn(C)c2=O)c1` [Compound 1.038], the “PRE Application IPOHE, percentage damage (five point scale)” value was 5 (5=80-100%).
